Test results: ChEMBL document CHEMBL1201862, “PubChem BioAssay data set” (2004)
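Following 48 hours of exposure in 96-well plates, responses at five concentrations were used to interpolate endpoints linearly. Abbreviation: GI50, concentration required for 50% inhibition of growth.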 The source made the active and inactive calls. Rule as the data show it: active = GI50 up to about 1.1 µM and inactive = higher.

Tests used:
Experiment in all cases: NCI tumour cell line growth inhibition, 48 h
SK-MEL-28 = system: SK-MEL-28
SW-620 = system: SW-620
LOX IMVI = system: LOX IMVI
SN12C = system: SN12C
EKVX = system: EKVX
RXF 393 = system: RXF 393
OVCAR-3 = system: OVCAR-3
DU-145 = system: DU-145
NCI-H460 = system: NCI-H460
HCT-116 = system: HCT-116
CAKI-1 = system: CAKI-1
SR = system: SR
HL-60 = system: HL-60
NCI-H522 = system: NCI-H522
SK-OV-3 = system: SK-OV-3
MDA-MB-435 = system: MDA-MB-435
HOP-92 = system: HOP-92
T47D = system: T47D
MOLT-4 = system: MOLT-4
SNB-75 = system: SNB-75
MDA-N = system: MDA-N
OVCAR-5 = system: OVCAR-5
SK-MEL-2 = system: SK-MEL-2
TK-10 = system: TK-10
SF-295 = system: SF-295
MDA-MB-231 = system: MDA-MB-231
BT-549 = system: BT-549
MCF7 = system: MCF7
A498 = system: A498
UACC-62 = system: UACC-62
KM12 = system: KM12
Hs-578T = system: Hs-578T
HOP-62 = system: HOP-62
SK-MEL-5 = system: SK-MEL-5
UACC-257 = system: UACC-257
K562 = system: K562
CCRF-CEM = system: CCRF-CEM
ACHN = system: ACHN
786-0 = system: 786-0
IGROV-1 = system: IGROV-1
U-251 = system: U-251
PC-3 = system: PC-3
HCT-15 = system: HCT-15
SF-539 = system: SF-539
A549 = system: A549
OVCAR-4 = system: OVCAR-4
UO-31 = system: UO-31
COLO 205 = system: COLO 205
RPMI-8226 = system: RPMI-8226
OVCAR-8 = system: OVCAR-8
SF-268 = system: SF-268
SNB-19 = system: SNB-19
HT-29 = system: HT-29
NCI-H226 = system: NCI-H226
M14 = system: M14
NCI-H23 = system: NCI-H23
HCC 2998 = system: HCC 2998
Malme-3M = system: Malme-3M

## CN1Cc2ccccc2S(=O)(=O)n2cccc2C1=O
SK-MEL-28
  GI50: > 100 µM (inactive)
SW-620
  GI50: > 100 µM (inactive)
LOX IMVI
  GI50: > 100 µM (inactive)
SN12C
  GI50: > 100 µM (inactive)
EKVX
  GI50: > 100 µM (inactive)
RXF 393
  GI50: > 100 µM (inactive)
OVCAR-3
  GI50: > 100 µM (inactive)
DU-145
  GI50: > 100 µM (inactive)
NCI-H460
  GI50: > 100 µM (inactive)
HCT-116
  GI50: > 100 µM (inactive)
CAKI-1
  GI50: > 100 µM (inactive)
SR
  GI50: 8.41 µM (inactive)
HL-60
  GI50: > 100 µM (inactive)
NCI-H522
  GI50: > 100 µM (inactive)
SK-OV-3
  GI50: > 100 µM (inactive)
MDA-MB-435
  GI50: > 100 µM (inactive)
HOP-92
  GI50: > 100 µM (inactive)
T47D
  GI50: 32.8 µM (inactive)
MOLT-4
  GI50: > 100 µM (inactive)
SNB-75
  GI50: > 100 µM (inactive)
MDA-N
  GI50: > 100 µM (inactive)
OVCAR-5
  GI50: > 100 µM (inactive)
SK-MEL-2
  GI50: > 100 µM (inactive)
TK-10
  GI50: > 100 µM (inactive)
SF-295
  GI50: > 100 µM (inactive)
MDA-MB-231
  GI50: > 100 µM (inactive)
BT-549
  GI50: > 100 µM (inactive)
MCF7
  GI50: > 100 µM (inactive)
A498
  GI50: > 100 µM (inactive)
UACC-62
  GI50: > 100 µM (inactive)
KM12
  GI50: > 100 µM (inactive)
Hs-578T
  GI50: > 100 µM (inactive)
HOP-62
  GI50: > 100 µM (inactive)
SK-MEL-5
  GI50: > 100 µM (inactive)
UACC-257
  GI50: > 100 µM (inactive)
K562
  GI50: > 100 µM (inactive)
CCRF-CEM
  GI50: > 100 µM (inactive)
ACHN
  GI50: > 100 µM (inactive)
786-0
  GI50: > 100 µM (inactive)
IGROV-1
  GI50: > 100 µM (inactive)
U-251
  GI50: > 100 µM (inactive)
PC-3
  GI50: > 100 µM (inactive)
HCT-15
  GI50: > 100 µM
SF-539
  GI50: > 100 µM (inactive)
A549
  GI50: > 100 µM (inactive)
OVCAR-4
  GI50: > 100 µM (inactive)
UO-31
  GI50: > 100 µM (inactive)
COLO 205
  GI50: > 100 µM (inactive)
RPMI-8226
  GI50: > 100 µM (inactive)

## CCN(CC)C1Oc2cc3c(cc2C(c2ccc(OC)cc2)C1C)OCO3 (stereo not given)
SK-MEL-28
  GI50: 20.4 µM (inactive)
SW-620
  GI50: 30.3 µM (inactive)
LOX IMVI
  GI50: 16.1 µM (inactive)
SN12C
  GI50: 21.7 µM (inactive)
EKVX
  GI50: 18.3 µM (inactive)
OVCAR-8
  GI50: 19.5 µM (inactive)
RXF 393
  GI50: 18.9 µM (inactive)
OVCAR-3
  GI50: 18.2 µM (inactive)
DU-145
  GI50: 25.6 µM (inactive)
NCI-H460
  GI50: 17.1 µM (inactive)
HCT-116
  GI50: 15.8 µM (inactive)
CAKI-1
  GI50: 24.9 µM (inactive)
SF-268
  GI50: 17.3 µM (inactive)
SR
  GI50: 12.5 µM (inactive)
NCI-H522
  GI50: 15 µM (inactive)
SK-OV-3
  GI50: 40.2 µM (inactive)
MDA-MB-435
  GI50: 18.9 µM (inactive)
HOP-92
  GI50: 25.3 µM (inactive)
T47D
  GI50: 26.9 µM (inactive)
SNB-19
  GI50: 26.9 µM (inactive)
MOLT-4
  GI50: 17.6 µM (inactive)
SNB-75
  GI50: 20.3 µM (inactive)
MDA-N
  GI50: 17.5 µM (inactive)
OVCAR-5
  GI50: 26.2 µM (inactive)
HT-29
  GI50: 18.7 µM (inactive)
NCI-H226
  GI50: 23 µM (inactive)
SK-MEL-2
  GI50: 17.6 µM (inactive)
TK-10
  GI50: 18.7 µM (inactive)
M14
  GI50: 21.2 µM (inactive)
SF-295
  GI50: 21.7 µM (inactive)
MDA-MB-231
  GI50: 23.4 µM (inactive)
BT-549
  GI50: 20.8 µM (inactive)
MCF7
  GI50: 20.9 µM (inactive)
NCI-H23
  GI50: 21.8 µM (inactive)
A498
  GI50: 19.7 µM (inactive)
UACC-62
  GI50: 19.1 µM (inactive)
HCC 2998
  GI50: 19 µM (inactive)
KM12
  GI50: 20 µM (inactive)
Hs-578T
  GI50: 18.7 µM (inactive)
HOP-62
  GI50: 24.8 µM (inactive)
SK-MEL-5
  GI50: 17.3 µM (inactive)
UACC-257
  GI50: 15.9 µM (inactive)
K562
  GI50: 19.1 µM (inactive)
CCRF-CEM
  GI50: 15.5 µM (inactive)
ACHN
  GI50: 22.5 µM (inactive)
786-0
  GI50: 21.7 µM (inactive)
IGROV-1
  GI50: 29.5 µM (inactive)
Malme-3M
  GI50: 18.3 µM (inactive)
U-251
  GI50: 22.2 µM (inactive)
PC-3
  GI50: 23.8 µM (inactive)
HCT-15
  GI50: 18.9 µM
SF-539
  GI50: 20.2 µM (inactive)
A549
  GI50: 22.6 µM (inactive)
UO-31
  GI50: 19.7 µM (inactive)
COLO 205
  GI50: 17.6 µM (inactive)
RPMI-8226
  GI50: 17 µM (inactive)
